According to PubChem BioAssay (NCI):
Values joined by “and” are separate entries in the source; they are usually repeats but may differ in a detail not shown here. Equal values may be shown once.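 Briefly, cells in 96-well plates were exposed to five compound concentrations for 48 h, and endpoints were estimated by linear interpolation. GI50 = concentration required for 50% inhibition of growth. TGI: concentration producing complete growth inhibition.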

Tests used:
Test in all cases: NCI-60 cell line screen, 48 h
COLO 205 colon = system: COLO 205 colon
HL-60(TB) leukemia = system: HL-60(TB) leukemia
MDA-MB-231 breast = system: MDA-MB-231 breast
K-562 leukemia = system: K-562 leukemia
LOX IMVI melanoma = system: LOX IMVI melanoma
NCI-H226 lung = system: NCI-H226 lung
IGROV1 ovarian = system: IGROV1 ovarian
OVCAR-5 ovarian = system: OVCAR-5 ovarian
NCI-H460 lung = system: NCI-H460 lung
MALME-3M melanoma = system: MALME-3M melanoma

Structure (SMILES)	GI50 (COLO 205 colon) [µM]	TGI (COLO 205 colon)	GI50 (HL-60(TB) leukemia) [µM]	TGI (HL-60(TB) leukemia)	TGI (MDA-MB-231 breast)	GI50 (K-562 leukemia) [µM]	TGI (K-562 leukemia) [µM]	GI50 (LOX IMVI melanoma) [µM]	TGI (LOX IMVI melanoma)	TGI (NCI-H226 lung) [µM]	TGI (IGROV1 ovarian)	GI50 (OVCAR-5 ovarian) [µM]	TGI (OVCAR-5 ovarian)	GI50 (NCI-H460 lung) [µM]	TGI (NCI-H460 lung)	TGI (MALME-3M melanoma)	GI50 (MDA-MB-231 breast) [µM]	GI50 (NCI-H226 lung) [µM]	GI50 (IGROV1 ovarian) [µM]	GI50 (MALME-3M melanoma) [µM]
O=c1[nH]c(=O)n(C2OC(CO)C(O)C2O)cc1F (configuration not stated)	0.0447	18.7 µM	0.025	26.3 µM	> 100 µM	0.018	> 100	0.016	7.18 µM	27.6	3.12 µM	0.0442	26 µM	0.00463	1.01 µM	47.5 µM				
CCSCCCC(=O)O		> 100 µM		> 100 µM	> 100 µM		> 100		> 100 µM	> 100	> 100 µM		> 100 µM			> 100 µM				
COc1ccc2c(c1)C(=O)c1c-2n(CCCCl)c(=O)c2cc(N)ccc12	> 100	> 100 µM	> 41.3	> 59.1 µM	> 95.7 µM	> 48.7	> 100	98.2	> 100 µM	> 100	> 100 µM	> 61.7	> 100 µM	> 100	> 100 µM	> 100 µM	25.6	> 80.7	> 100	> 100
Cc1cc(OCc2nn(CN3CCN(C)CC3)c(=S)n2/N=C/c2ccc(F)cc2)ccc1Cl	12.6	25.7 µM	17.4	40 µM	36 µM	19.2	41.7	18.3	32.7 µM	33.6	30.5 µM	25	49.5 µM	17	31.8 µM	43.4 µM	18.5	17.7	16.2	22.8
C1=C\CCCCN2CC[C@H]3[C@H](CCCC/C=C\CCCN4C[C@@H](CCCCC/1)C[C@@H]3C4)C2	2.25	5.75 µM	2.77	10.8 µM	19.1 µM	2.37		4.3	14.8 µM	27.7	23.1 µM	12.5	25.5 µM	5.58	18.1 µM	5.43 µM	6.03	13.5	9.27	2.13
COc1cc(/C=C/c2ccnc3ccccc23)cc(OC)c1OC	3.26	7.36 µM and 15.1 µM	2.56	1.58 µM and 7.97 µM	9.42 µM and 46 µM	0.746	> 100	5.25	29.3 µM and > 100 µM	50.9	35 µM and > 100 µM		95 µM and > 100 µM	2.94	15.8 µM and 15 µM	42.5 µM and > 100 µM	2.8		4.94	3.88
C/C(=N\NC(=S)N1CCN(c2ccccn2)CC1)c1cccc2cccnc12		> 46.1 µM		12.3 µM	> 64.6 µM		> 100		> 100 µM	38.4	> 100 µM		> 60.1 µM		> 100 µM	> 100 µM				
CC(C)(C)OC(=O)N1Cc2cc3ccccc3nc2C1CO (configuration not stated)	> 100	> 100 µM	> 100	> 100 µM	> 100 µM	> 100	> 100	> 100	> 100 µM	> 100	> 100 µM	> 100	> 100 µM	> 100	> 100 µM	> 100 µM	> 100	> 100	> 100	> 100
COc1cccc(-c2nn(-c3ccccc3)cc2-c2ccnc(NCCCNS(=O)(=O)c3ccc(C(F)(F)F)cc3)c2)c1	2.5	7.77 µM	3.97	> 100 µM	> 100 µM	3.06	> 100	4.86	> 100 µM	> 100	> 100 µM	> 100	> 100 µM	6	> 100 µM	> 100 µM	4.98	8.75	10.7	3.4
Cc1nn(-c2ccccc2)c2nc(C)n(-c3ccc(Br)cc3)c(=O)c12	0.549	18.4 µM	0.286	3.07 µM	> 100 µM	0.302	> 100	0.51	> 100 µM	> 100	> 100 µM	1.99	> 100 µM	0.451	> 39.1 µM	76.9 µM	1.45	1.01	0.584	12.1
O=C(Nc1cc2cc([N+](=O)[O-])ccc2oc1=O)c1cccs1		85.2 µM		44.5 µM	> 100 µM		> 100		> 100 µM	> 100	> 100 µM		> 100 µM		> 100 µM	> 100 µM				
COC(=O)[C@H](CCCCNC(=O)OCc1ccccc1)NC(=O)[C@@H](NC(=O)Nc1cc(C(F)(F)F)cc(C(F)(F)F)c1)C(C)C	> 10	> 10 µM	> 10	> 10 µM	> 10 µM	> 10	> 10	> 10	> 10 µM	> 10	> 10 µM	> 10	> 10 µM	> 10	> 10 µM	> 10 µM	> 10	> 10	> 10	> 10
CC[Si](CC)(CC)OC1[C@@H](O[Si](CC)(CC)CC)[C@@H](CNC(=O)NC)O[C@H]1n1cnc2c(NC(=O)Nc3ccccc3)ncnc21 (some centres not stated)	2.09	3.62 µM	2.49	6.32 µM	56.1 µM	3.49	> 100	2.61	7.85 µM	> 100	> 100 µM	4.06	62.1 µM	2.48	6.61 µM	6.67 µM	4.18	5.11	5.02	2.39
NC(=O)c1ncn2c(=O)n(CCCl)nnc12		305 µM		223 µM	584 µM		642		279 µM	425	482 µM		608 µM		221 µM	346 µM				
